# Where “and” joins values, the source holds several entries; their conditions need not be identical. Equal entries are not always repeated.
# Target: Mitogen-activated protein kinase kinase kinase kinase 1 (Homo sapiens, UniProt Q92918)
# Experiment: HPK1-SLP76 TR-FRET ASSAY
# Mitogen-activated protein kinase kinase kinase kinase 1, sequence (Q92918 whole entry): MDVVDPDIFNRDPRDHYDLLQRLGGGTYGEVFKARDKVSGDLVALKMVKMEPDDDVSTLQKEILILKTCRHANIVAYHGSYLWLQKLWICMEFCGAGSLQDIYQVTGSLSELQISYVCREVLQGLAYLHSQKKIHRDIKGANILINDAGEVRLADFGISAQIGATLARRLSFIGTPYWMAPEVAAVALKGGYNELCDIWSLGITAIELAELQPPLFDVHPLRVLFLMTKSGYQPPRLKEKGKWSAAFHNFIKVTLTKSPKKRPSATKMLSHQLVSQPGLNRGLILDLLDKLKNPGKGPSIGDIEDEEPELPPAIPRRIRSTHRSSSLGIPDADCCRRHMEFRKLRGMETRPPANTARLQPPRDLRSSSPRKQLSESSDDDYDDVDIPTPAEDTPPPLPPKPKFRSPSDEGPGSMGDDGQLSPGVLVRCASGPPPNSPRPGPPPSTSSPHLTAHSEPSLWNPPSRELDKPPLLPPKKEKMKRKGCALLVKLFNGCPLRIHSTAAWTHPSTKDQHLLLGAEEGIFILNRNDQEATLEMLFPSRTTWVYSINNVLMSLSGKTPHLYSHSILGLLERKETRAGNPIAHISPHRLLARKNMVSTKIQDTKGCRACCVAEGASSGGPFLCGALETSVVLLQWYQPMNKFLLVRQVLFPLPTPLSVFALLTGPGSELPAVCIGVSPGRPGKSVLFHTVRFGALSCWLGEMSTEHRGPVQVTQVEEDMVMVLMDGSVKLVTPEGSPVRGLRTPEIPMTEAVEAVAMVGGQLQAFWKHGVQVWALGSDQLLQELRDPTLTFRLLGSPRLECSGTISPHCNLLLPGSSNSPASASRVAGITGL
row,SMILES,IC50
1,"Cc1c(-c2cc3nc(Nc4ccc([C@@H](C)S(C)(=O)=O)cc4)ncc3c(N)c2F)cnc2c1NCCO2 [WO2022098806, Compound 2-63]",0.09 nM
2,"CNC(=O)C(C)(C)c1ccc(Nc2ncc3c(N)c(F)c(-c4cnc5c(c4C)NCCO5)cc3n2)cc1 [WO2022098806, Compound 2-187]",0.08 nM
3,"COc1cc2c(cc1Nc1ncc3ccc(NCC4(C)CCC4)cc3n1)CN(C)CC2 [WO2022098806, Compound 3-62]",111 nM
4,"Cc1c(-c2cc3nc(Nc4ccccc4C4CC4)ncc3c(N)c2F)cnc2c1NCCO2 [WO2022098806, Compound 2-26]",11 nM
5,"CNC(=O)C1(c2ccc(Nc3ncc4c(N)c(F)c(-c5cnc6c(c5C)NCCO6)cc4n3)cc2)CC1 [WO2022098806, Compound 2-81]",0.04 nM
6,"Cc1c(-c2cc3nc(Nc4ccc(CC(C)(C)O)cc4)ncc3c(N)c2F)cnc2c1NCCO2 [WO2022098806, Compound 2-178]",0.09 nM
7,"CNC(=O)[C@@H](C)c1ccc(Nc2ncc3cc(F)c(-c4cnc5c(c4C)NCCO5)cc3n2)cc1 [WO2022098806, Compound 1-116]",0.22 nM
8,"CC(=O)NCc1ccc(Nc2ncc3c(N)c(F)c(-c4cnc5c(c4C)NCCO5)cc3n2)cc1 [WO2022098806, Compound 2-30]",0.08 nM
9,"CN1CCc2ccc(Nc3ncc4c(N)c(F)c(-c5cnc6c(c5Cl)NCCO6)cc4n3)cc2C1 [WO2022098806, Compound 2-124]",0.05 nM and 0.03 nM
10,"COc1cc(CS(=O)(=O)C(C)C)ccc1Nc1ncc2c(N)c(F)c(-c3cnc4c(c3C)NCC(C)(C)O4)cc2n1 [WO2022098806, Compound 2-168]",0.1 nM
11,"Cc1c(-c2c(F)c(N)c3cnc(Nc4ccc(N5CCOC5=O)cc4)nc3c2Cl)cnc2c1NCCO2 [WO2022098806, Compound 2-159]",0.24 nM
12,"Cc1c(-c2cc3nc(Nc4ccc(CS(=O)(=O)C(C)C)cc4)ncc3c(N)c2F)cnc2c1NCCO2 [WO2022098806, Compound 2-157]",0.07 nM
13,"Cc1c(-c2cc3nc(Nc4ccc(CS(C)(=O)=O)nc4)ncc3c(N)c2F)cnc2c1NCCO2 [WO2022098806, Compound 2-84]",0.02 nM
14,"COc1cc([C@@H](C)S(C)(=O)=O)ccc1Nc1ncc2c(N)c(F)c(-c3cnc4c(c3C)NCCO4)cc2n1 [WO2022098806, Compound 2-56]",0.1 nM
15,"COc1cc2c(cc1Nc1ncc3ccc(N4CC(CN)OC4=O)cc3n1)CN(C)CC2 (stereo unspecified) [WO2022098806, Compound 3-11]",82 nM
16,"CNC(=O)[C@H](C)c1ccc(Nc2ncc3cc(F)c(-c4cnc5c(c4C)NCCO5)cc3n2)cc1 [WO2022098806, Compound 1-117]",0.07 nM
17,"Cc1c(-c2c(F)c(N)c3cnc(Nc4ccc5c(c4)CN(C)CC5)nc3c2Cl)cnc2c1NCCO2 [WO2022098806, Compound 2-180]",0.06 nM and 0.02 nM
18,"CNC(=O)C(F)(F)c1ccc(Nc2ncc3c(N)c(F)c(-c4cnc5c(c4C)NCCO5)cc3n2)cc1 [WO2022098806, Compound 2-186]",0.14 nM
19,"Cc1c(-c2c(F)c(N)c3cnc(Nc4ccc(S(C)(=O)=O)cc4)nc3c2Cl)cnc2c1NCCO2 [WO2022098806, Compound 2-103]",0.09 nM
20,"Cc1c(-c2cc3nc(Nc4ccc(CS(C)(=O)=O)cc4F)ncc3c(N)c2F)cnc2c1NCCO2 [WO2022098806, Compound 2-155]",0.06 nM
21,"Cc1c(-c2cc3nc(Nc4ccc([C@@H]5CCN(C)C5=O)cc4)ncc3cc2F)cnc2c1NCCO2 [WO2022098806, Compound 1-125]",0.06 nM

row,SMILES,IC50
1,"Cc1c(-c2cc3nc(Nc4ccc5c(c4)CCS(=O)(=O)C5)ncc3c(N)c2F)cnc2c1NCCO2 [WO2022098806, Compound 2-138]",0.07 nM
2,"COc1cc2c(cc1Nc1ncc3c(N)c(F)c(-c4cnc5c(c4C)NCCO5)cc3n1)[C@@H](C)N(C)CC2 [WO2022098806, Compound 2-35]",0.15 nM
3,"CC(=O)N[C@@H]1CCc2cc(Nc3ncc4c(N)c(F)c(-c5cnc6c(c5C)NCCO6)cc4n3)ccc21 [WO2022098806, Compound 2-10]",0.12 nM
4,"COc1cc2c(cc1Nc1ncc3ccc(-c4cncc5cccnc45)cc3n1)CN(C)CC2 [WO2022098806, Compound 1-24]",10 nM
5,"Cc1c(-c2cc3nc(Nc4ccc5c(c4)CN(C)[C@H](C)C5)ncc3c(N)c2F)cnc2c1NCCO2 [WO2022098806, Compound 2-86]",0.04 nM
6,"CC(=O)N1CCC[C@H]1c1ccc(Nc2ncc3c(N)c(F)c(-c4cnc5c(c4C)NCCO5)cc3n2)cc1 [WO2022098806, Compound 2-29]",0.27 nM
7,"COc1cc2c(cc1Nc1ncc3ccc(NC4CCCC(O)C4)cc3n1)CN(C)CC2 (stereo unspecified) [WO2022098806, Compound 3-39]",228 nM
8,"COc1cc2c(cc1Nc1ncc3ccc(-c4cncc(N5CCOCC5)c4)cc3n1)CNCC2 [WO2022098806, Compound 1-42]",39 nM
9,"CNC(=O)c1ccc(Nc2ncc3c(N)cc(N4C(=O)OC[C@@H]4C)cc3n2)c(OC)c1 [WO2022098806, Compound 3-79]",0.25 nM
10,"Cc1c(-c2cc3nc(Nc4ccc5c(c4)CCN(C)C5)ncc3c(N)c2F)cnc2c1NCCO2 [WO2022098806, Compound 2-158]",0.03 nM
11,"CNC(=O)[C@@H]1CCc2cc(Nc3ncc4cc(F)c(-c5cnc6c(c5C)NCCO6)cc4n3)ccc21 [WO2022098806, Compound 1-118]",0.04 nM
12,"COc1cc2c(cc1Nc1ncc3ccc(-c4cnn(C(F)F)c4)cc3n1)CN(C)CC2 [WO2022098806, Compound 1-26]",11 nM
13,"CCCC(=O)Nc1cncc(-c2ccc3cnc(Nc4cc5c(cc4OC)CCNC5)nc3c2)c1 [WO2022098806, Compound 1-52]",11 nM
14,"Cc1c(-c2cc3nc(Nc4cc5c(cc4F)CCN(C(C)C)C5)ncc3c(N)c2F)cnc2c1NCCO2 [WO2022098806, Compound 2-171]",0.05 nM
15,"COc1cc2c(cc1Nc1ncc3ccc(N4CC(CO)OC4=O)cc3n1)CN(C)CC2 (stereo unspecified) [WO2022098806, Compound 3-4]",9.36 nM
16,"COc1cc2c(cc1Nc1ncc3c(N)c(F)c(-c4cnc5c(c4C)NCCO5)cc3n1)CN(C)CC2(C)C [WO2022098806, Compound 2-75]",0.33 nM
17,"COc1cc2c(cc1Nc1ncc3c(N)c(F)c(-c4cnc5ncsc5c4)cc3n1)CN(C)CC2 [WO2022098806, Compound 2-47]",25 nM
18,"Cc1c(-c2ccc3cnc(Nc4ccc(CS(=O)(=O)C(C)C)cc4)nc3c2)cnc2c1NCCO2 [WO2022098806, Compound 1-129]",0.09 nM
19,"COc1cc2c(cc1Nc1ncc3c(N)c(F)c(-c4cnc5c(c4C)NCCO5)c(Cl)c3n1)CN(C)CC21CC1 [WO2022098806, Compound 2-169]",0.06 nM
20,"Cc1c(-c2cc3nc(Nc4ccc5c(c4)CN(C)CC5)ncc3c(N)c2F)cnc2c1NCC(C)O2 (stereo unspecified) [WO2022098806, Compound 2-141]",0.05 nM
21,"Cc1c(-c2cc3nc(Nc4cccc5c4CC(C)(C)N(C)C5)ncc3c(N)c2F)cnc2c1NCCO2 [WO2022098806, Compound 2-127]",100 nM

row,SMILES,IC50
1,"Cc1c(-c2cc3nc(Nc4ccc5c(c4)CNCCC5)ncc3c(N)c2F)cnc2c1NCCO2 [WO2022098806, Compound 2-120]",0.01 nM
2,"COc1cc2c(cc1Nc1ncc3c(N)c(F)c(-c4cc5oc(=O)[nH]c5cc4C)cc3n1)CN(C)CC2 [WO2022098806, Compound 2-49]",10 nM
3,"COc1cc2c(cc1Nc1ncc3ccc(NC4CCN(C)C4=O)cc3n1)CN(C)CC2 (stereo unspecified) [WO2022098806, Compound 3-49]",97 nM and 98 nM
4,"Cc1ccc(F)cc1-c1cc2nc(Nc3ccc(CS(C)(=O)=O)cc3)ncc2c(N)c1F [WO2022098806, Compound 2-172]",25 nM
5,"CNC(=O)C1(c2ccc(Nc3ncc4c(N)c(F)c(-c5cnc6c(c5C)NCCO6)cc4n3)cc2)CCCCC1 [WO2022098806, Compound 2-80]",0.07 nM
6,"Cc1c(-c2cc3nc(Nc4ccc(CC(=O)N5CCOCC5)cc4)ncc3cc2F)cnc2c1NCCO2 [WO2022098806, Compound 1-133]",0.08 nM
7,"Cc1c(-c2cc3nc(Nc4ccc5c(c4)C4CCC5N4C)ncc3c(N)c2F)cnc2c1NCCO2 (stereo unspecified) [WO2022098806, Compound 2-121]",0.02 nM
8,"COc1cc2c(cc1Nc1ncc3ccc(-c4cccc(S(=O)(=O)N5CCCCC5)c4)cc3n1)CNCC2 [WO2022098806, Compound 1-82]",15 nM
9,"Cc1c(-c2cc3nc(Nc4ccc(NS(C)(=O)=O)cc4)ncc3c(N)c2F)cnc2c1NCCO2 [WO2022098806, Compound 2-16]",0.09 nM
10,"COc1cc2c(cc1Nc1ncc3ccc(Oc4ccc5c(c4)CNCC5)cc3n1)CN(C)CC2 [WO2022098806, Compound 4-9]",2.19 nM
11,"COc1cc2c(cc1Nc1ncc3ccc(N4CC5(CCOC5)OC4=O)cc3n1)CN(C)CC2 (stereo unspecified) [WO2022098806, Compound 3-3]",391 nM
12,"Cc1c(-c2cc3nc(Nc4ccc5c(c4)CN(C(C)C)CC5)ncc3c(N)c2F)cnc2c1NCC(C)O2 (stereo unspecified) [WO2022098806, Compound 2-145]",0.05 nM
13,"Cc1c(-c2cc3nc(Nc4ccc(S(C)(=O)=O)cc4)ncc3c(N)c2F)cnc2c1NCCO2 [WO2022098806, Compound 2-17]",0.09 nM
14,"COc1cc2c(cc1Nc1ncc3ccc(Nc4cccc(S(C)(=O)=O)c4)cc3n1)CN(C)CC2 [WO2022098806, Compound 3-33]",18 nM
15,"Cc1c(-c2cc3nc(Nc4ccc5c(c4)CC(C)(C)N(C)C5)ncc3c(N)c2F)cnc2c1NCCO2 [WO2022098806, Compound 2-126]",0.09 nM
16,"Cc1c(-c2cc3nc(Nc4ccc([C@H]5CCN(C)C5=O)cc4)ncc3cc2F)cnc2c1NCCO2 [WO2022098806, Compound 1-127]",0.95 nM
17,"Cc1c(-c2cc3nc(Nc4ccc([C@H](C)S(C)(=O)=O)cc4)ncc3c(N)c2F)cnc2c1NCCO2 [WO2022098806, Compound 2-62]",0.06 nM
18,"COc1ncccc1Nc1ncc2c(N)c(F)c(-c3cnc4c(c3C)NCCO4)cc2n1 [WO2022098806, Compound 2-27]",0.12 nM
19,"COc1cc([C@H]2CCN(C)C2=O)ccc1Nc1ncc2c(N)c(F)c(-c3cnc4c(c3C)NCCO4)cc2n1 [WO2022098806, Compound 2-57]",0.91 nM

# From BindingDB's records for patent WO2022098806 (MERCK SHARP & DOHME LLC, 2022)
